Measurements: PubChem BioAssay (NCI)
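Protocol summary: plate cells (96-well), add compound at 5 concentrations, incubate 48 h, interpolate endpoints linearly. Definition used: TGI = concentration required for complete inhibition of growth.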

How the values were obtained:
Experiment in all cases: inhibition of tumour cell growth, NCI panel, 48 h
[1] = system: IGROV1 ovarian
[2] = system: OVCAR-5 ovarian
[3] = system: K-562 leukemia
[4] = system: DU-145 prostate
[5] = system: SK-MEL-5 melanoma
[6] = system: UACC-62 melanoma
[7] = system: NCI-H23 lung
[8] = system: MDA-N
[9] = system: NCI-H460 lung
[10] = system: HCC-2998 colon
[11] = system: UACC-257 melanoma
[12] = system: HOP-62 NSCLC
[13] = system: TK-10 renal
[14] = system: PC-3 prostate
[15] = system: OVCAR-4 ovarian
[16] = system: 786-0 renal
[17] = system: COLO 205 colon
[18] = system: SF-268 CNS
[19] = system: HL-60(TB) leukemia
[20] = system: MALME-3M melanoma
[21] = system: RPMI-8226 leukemia
[22] = system: MOLT-4 leukemia
[23] = system: CCRF-CEM leukemia
[24] = system: MDA-MB-231 breast
[25] = system: LOX IMVI melanoma
[26] = system: OVCAR-3 ovarian
[27] = system: SK-MEL-28 melanoma
[28] = system: NCI/ADR-RES ovarian
[29] = system: HCT-15 colon
[30] = system: NCI-H522 lung
[31] = system: HCT-116 colon
[32] = system: U251 CNS
[33] = system: CAKI-1 renal
[34] = system: MCF7 breast
[35] = system: HS 578T breast
[36] = system: NCI-H226 lung
[37] = system: HT29 colon
[38] = system: OVCAR-8 ovarian
[39] = system: SN12C renal
[40] = system: UO-31 renal
[41] = system: A498 renal
[42] = system: SK-OV-3 ovarian
[43] = system: M14 melanoma
[44] = system: SK-MEL-2 melanoma
[45] = system: RXF 393 renal
[46] = system: ACHN renal
[47] = system: SR leukemia
[48] = system: SF-295 CNS
[49] = system: MDA-MB-435
[50] = system: SNB-19 CNS
[51] = system: A549 NSCLC
[52] = system: KM12 colon
[53] = system: SW-620 colon
[54] = system: SNB-75 CNS
[55] = system: BT-549 breast
[56] = system: T-47D breast
[57] = system: EKVX NSCLC

Measured: TGI

COc1cc2[nH]c(=O)[nH]c2c2c(C)c[nH]c12
> 100 µM: [1] | [2] | [3] | [4] | [5] | [6] | [7] | [8] | [9] | [10] | [11] | [12] | [13] | [14] | [15] | [16] | [17] | [18] | [19] | [20] | [21] | [22] | [23] | [24] | [25] | [26] | [27] | [28] | [29] | [30] | [31] | [32] | [33] | [34] | [35] | [36] | [37] | [38] | [39] | [40] | [41] | [42] | [43] | [44] | [45] | [46] | [47] | [48] | [49] | [50] | [51] | [52] | [53] | [54] | [55] | [56] | [57]
